Results on two substances are retold here after US20110263454A1, “Methods of Identifying Functional Characteristics of Promoters, Transcription Modifying Proteins and Transcription Modulating Agents” (Salk Institute for Biological Studies, priority 2008, published 2011).

One test relates to mUCP1 promoter. Briefly: NHR-promoter luciferase screen, mUCP1 promoter. The format is cell-based, mouse. The settings on record: for Luc. act., normalized to lacZ / Normalized Luc. act., normalized to control: mUCP1 promoter reporter, co-transfected HR, with or without its ligand; for Normalized Luc. act., normalized to control: relative to control; for luciferase activity normalized to lacZ activity and to a control, mUCP!: mUCP! promoter-luciferase, CV-1 cells, NHR +/- ligand, control = 1.00. An outline of the steps: (§1)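 CV-1 cells were co-transfected with 50 ng NHR (homodimer or NHR/RXR heterodimer), 100 ng promoter-luciferase construct and 50 ng LacZ. Luciferase was normalized to LacZ and to a no-NHR/no-ligand control.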

The next test relates to hTNFa promoter. Briefly: NHR-promoter luciferase screen, hTNFa promoter. The format is cell-based, human. The settings on record: for Luc. act., normalized to lacZ / Normalized Luc. act., normalized to control: TNFa promoter, HR component without or with ligand; for hTNFa promoter reporter activity: transcription factor +/- ligand, control = 1.00. In short, it runs like this: as §1

The next test deals with FGF1D promoter. Briefly: FGF family promoter luciferase reporter screen by NHRs, FGF1D. Type of test: cell-based, human. The conditions noted are these: FIG. 43, in words. From the text:
(§2) Screening for FGF regulation by NHRs. The methods described herein provide a straightforward, high throughput, sensitive and quantitative strategy to identify therapeutic agonists and antagonists that can predictably modulate FGF and FGFR expression for therapeutic benefit. Promoter constructs were designed and screened for all 22 members of the FGF-family for novel regulation by the NHRs. Of particular interest is the strong and specific transcriptional regulation of FGF1A, one of the alternative splice variants of FGF1, by PPARγ (FIG. 43). The FGF 1 gene is regulated by at least three (A, B and D) different promoters. Alternative splicing of these promoters to the three exons of the FGF1 gene results in identical but differentially expressed FGF1 polypeptides (FIG. 44). FGF1A is highly expressed in heart, kidney and adipose, FGF1B is highly expressed in brain and FGF1D is highly expressed in liver.
(A reporter such as luciferase makes a cellular process visible.)

A further test concerns FGF1A promoter. Briefly: FGF family promoter luciferase reporter screen by NHRs, FGF1A. Type of test: cell-based, human. The conditions noted are these: FIG. 43, in words.
Source text: as §2
FGF1A promoter analysis. To gain more insight into the regulation of the FGF1A promoter by PPARγ, the putative PPRE was localized. […] The evolutionary conservation of FGF1A was determined and found to be highly conserved in a wide range of mammals (bovine, canine, horse, chimpanzee, human, orangutan, rat, mouse, and opossum). […] In addition to a strong conservation of the PPRE in this promoter, several other highly conserved elements were detected (e.g. SP1, HMTB, EVI1 and E-box).

Take “LXRa: Liver X Receptor α (NR1H3), cDNA driver”: in the test with mUCP1 promoter, the “Luc. act., normalized to lacZ” value came to 3.1; the “Normalized Luc. act., normalized to control” value came to 0.7; the “luciferase activity normalized to lacZ activity and to a control, mUCP!” value was found to be 0.69. Further, in the test with hTNFa promoter, the “Luc. act., normalized to lacZ” value worked out at 994.6; the “Normalized Luc. act., normalized to control” value was 1.0; the “hTNFa promoter reporter activity” value was determined as 1.01. The “activation of FGF1D promoter, luciferase reporter assay” value in the test on FGF1D promoter is “moderate activation”.

“PPARg: Peroxisome proliferator activated receptor γ (NR1C3), cDNA driver”: in the test with mUCP1 promoter, the “Luc. act., normalized to lacZ” value is reported as 2.9; the “Normalized Luc. act., normalized to control” value amounted to 0.7; the “luciferase activity normalized to lacZ activity and to a control, mUCP!” value is given as 0.66. Moreover, in the test with hTNFa promoter, the “Luc. act., normalized to lacZ” value turned out to be 1345.4; the “Normalized Luc. act., normalized to control” value was 1.4; the “hTNFa promoter reporter activity” value came out at 1.37. In the test with FGF1A promoter, the “activation of FGF1A promoter, luciferase reporter assay” value is reported as “strong activation”. Besides, the “activation of FGF1D promoter, luciferase reporter assay” value with FGF1D promoter is on record as “moderate activation”.
